The METLIN SMRT retention time set (Domingo-Almenara et al. 2019)

Experiment: gradient 5% acetonitrile 3 min, to 50% in 2 min, to 85% in 15 min, held 3 min, 100 µL/min
Conditions: column: Zorbax Extend-C18 2.1 x 50 mm; eluents: water / acetonitrile, 0.1% formic acid
In short: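 Retention times come from adduct peaks that were picked computationally and then checked by hand. The standards, pure and pooled in mixtures of ~100 molecules, were run on a Zorbax Extend-C18 column (2.1 × 50 mm, 1.8 μm) at 100 μL/min with water and acetonitrile, each with 0.1% formic acid. Detection was by quadrupole time-of-flight mass spectrometry in positive and negative ionization mode, with a dead volume of 40 μL and a dwell volume of 900 μL.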

Row | SMILES | RP-LC retention time
1 | COc1ccccc1-n1c(SCC(=O)Nc2nnc(C)s2)nc2c(c1=O)SCC2 | 645 s
2 | Cc1cccc(NC(=O)C2CC(=O)N(c3ccc4c(c3)CCN4C(=O)C3CC3)C2)c1C (stereo unspecified) | 763 s
3 | COc1cccc(CNc2ncc(C(=O)O)c(C(C)C)n2)c1 | 851 s
4 | CCOc1ccccc1NC(=O)N1CCC(n2cnc3c(Cl)cccc3c2=O)CC1 | 889 s
5 | CC1CCCN(S(=O)(=O)c2ccc(-c3nnc(C4CCCC4)o3)o2)C1 (stereo unspecified) | 1080 s
6 | COc1ccc(NC(=O)C(C)C2CCN(C(=O)Nc3ccc(C)cc3)CC2)c(OC)c1 (stereo unspecified) | 848 s
7 | NC(=O)c1ccccc1NC(=O)C1CCN(C(=O)c2ccccc2F)CC1 | 669 s
8 | Cc1ncc(-c2ccnc(Nc3ccc(S(C)(=O)=O)cc3)n2)n1C(C)C | 636 s
9 | COc1ccc(OC)c(NC(=O)C2CCCN(S(=O)(=O)Cc3ccc(Cl)cc3)C2)c1 (stereo unspecified) | 1050 s
10 | COc1ccc(OC)c(CNC(=O)Cc2nnc(-c3ccccn3)o2)c1 | 687 s
11 | Cn1c(CNC(=O)c2cn3ccccc3n2)nc2ccccc21 | 564 s
12 | O=C(NC1CC1)[C@@H]1C[C@H](Oc2cccnc2)CN1C(=O)C1CCC1 | 557 s
13 | Cc1csc(NC(=O)c2ccc(Br)cc2)n1 | 902 s
14 | COCCCNC(=O)C1CCCN(c2cnc3nc(C)c(C)nc3c2)C1 (stereo unspecified) | 619 s
15 | CC1(C)COCN1S(=O)(=O)c1ccc(C(=O)Nc2nnc(-c3ccc(F)cc3)o2)cc1 | 811 s
16 | Cc1cc(=O)n(CC(=O)N2CCCc3ccccc32)c(N2CCCCC2)n1 | 703 s
17 | COc1ccc(CCN2CC(=O)N(c3ccc(C)c(C)c3)[C@@H]3CS(=O)(=O)C[C@@H]32)cc1 | 886 s
18 | COc1ccc(OC)c(-n2cc(C(=O)O)c3c2C(C(F)(F)F)CC(=O)N3)c1 (stereo unspecified) | 730 s
19 | COc1ccccc1NC(=O)CSC1CCc2ccccc2NC1=O (stereo unspecified) | 793 s
20 | O=C(NCc1cccs1)c1ccc(-c2nccnc2N2CCCCC2)cc1 | 968 s
21 | CCc1ccc(C(=O)N2CCC3(C2)C(=O)Nc2ccc(OC)cc23)cc1 (stereo unspecified) | 786 s
22 | CC(C)n1c(SCC(=O)N2CCCCC2)nnc1-c1ccc2c(c1)OCCCO2 | 761 s
23 | CCOC(=O)c1c(S(=O)(=O)N2CCC(C(=O)Nc3ccc(C)c(F)c3)CC2)c(C)n(CC)c1C | 984 s
24 | Cc1cc(N2CCN(C(=O)c3ccc(N(C)C)cc3)CC2)nc2nnc(C)n12 | 579 s
25 | CCC(C)n1nnc2cc(S(=O)(=O)N3CCC(C(=O)NCc4cccnc4)CC3)ccc21 (stereo unspecified) | 648 s
26 | O=C(Nc1cccc(OCc2nnc(-c3ccc(F)cc3)o2)c1)C1CC(=O)N(c2ccccc2)C1 (stereo unspecified) | 895 s

Row | SMILES | RP-LC retention time
27 | Cc1cc2n(n1)CCC(=O)N2CCCC(=O)NCc1ccc(C)o1 | 644 s
28 | Cn1cc(CN2CCC(C(=O)N3CCN(c4ccccn4)CC3)CC2)c2cc(Cl)ccc21 | 584 s
29 | COc1ccc(-c2ccnc3nc(Cc4cc(F)cc(F)c4)nn23)c(F)c1 | 973 s
30 | O=C(NCCCN1CCCC1)C1CCc2sc(C(=O)N3CCOCC3)cc2C1 (stereo unspecified) | 566 s
31 | CC(C)(C)C(=O)OCOP(=O)(COCCn1cnc2c(N)ncnc21)OCOC(=O)C(C)(C)C | 725 s
32 | CCOC(=O)N1CCN(C(=O)c2nn(-c3ccccc3C)c(=O)cc2OC)CC1 | 663 s
33 | COc1ccc(C2Cn3nnc(-c4nc(-c5cccc(F)c5)no4)c3CO2)cc1 (stereo unspecified) | 1100 s
34 | Cc1ccc2[nH]cc(CCN3CC(C(=O)NCc4ccccc4Cl)CC3=O)c2c1 (stereo unspecified) | 846 s
35 | CCCN(C)c1nccnc1OC1CCN(C(=O)CC(C)C)C1 (stereo unspecified) | 835 s
36 | CCOc1ccc(-c2nc(-c3cccc(-c4ccn[nH]4)c3)no2)cc1 | 999 s
37 | O=C(NCc1ccc(F)cc1)C1CCc2nc(N3CCCCC3)ncc2C1 (stereo unspecified) | 678 s
38 | Fc1cc(F)c2nc(NCCCn3ccnc3)sc2c1 | 548 s
39 | O=C(C1CCN(S(=O)(=O)N2CCCC2)CC1)N1CCN(Cc2noc3ccccc23)CC1 | 671 s
40 | O=C(C1CC(=O)N(c2n[nH]c3ccccc23)C1)N1CCC(c2noc3cc(F)ccc23)CC1 (stereo unspecified) | 766 s
41 | CCc1nc2cc(N3CCCC(C(=O)NC4CC4)C3)cnc2nc1CC (stereo unspecified) | 696 s
42 | CC(C)c1nc(C2CN(C(=O)Nc3ccc(Cl)cc3)C2)n(C)n1 | 704 s
43 | COCCNC(=O)Cc1c(C)n(Cc2ccccc2)c2nc(-c3ccccc3)nn2c1=O | 776 s
44 | O=C(Nc1nnc(-c2ccno2)o1)C1CCCN(S(=O)(=O)c2ccc(Cl)s2)C1 (stereo unspecified) | 757 s
45 | CC(=O)Nc1ccc(Cc2nc(-c3cccc(-c4ccnn4C)c3)no2)cc1 | 874 s
46 | CC(C)CNC(=O)c1nc(-c2ccnc(N3CCC(C)CC3)c2)no1 | 814 s
47 | CCOC(=O)c1sc(NC(=O)CN2C(=O)c3ccccc3C2=O)c(SC#N)c1C | 912 s
48 | CN(C)c1cccc(-c2nc(-c3cn(Cc4ccc(F)cc4)nn3)no2)c1 | 1030 s
49 | COc1ccc(Cc2nc(-c3ccc4oc(C)nc4c3)no2)c(Cl)c1 | 1060 s
50 | CCCCN1C(=O)c2cc(S(=O)(=O)N3CCc4ccccc43)ccc2Oc2cccnc21 | 1260 s
51 | O=C(NCc1ccc2c(c1)OCO2)C1CCCN(c2ccc(=O)n(-c3cccc(Cl)c3)n2)C1 (stereo unspecified) | 857 s
52 | O=C(c1cc(-c2ccco2)[nH]n1)N1CCN(c2ccccn2)CC1 | 583 s

Row | SMILES | RP-LC retention time
53 | Cn1c(=O)c(C(=O)NCc2ccccc2)nc2cccnc21 | 735 s
54 | CNC(=O)[C@@H]1C[C@H](Oc2ccccc2)CN1C(=O)c1ccoc1 | 666 s
55 | COC(=O)C1=C(C)NC(=O)NC1c1cn(-c2ccccc2)nc1-c1ccc(Cl)cc1 (stereo unspecified) | 784 s
56 | CN(C)S(=O)(=O)c1ccc(C(=O)N2CC(=O)Nc3ccc(Cl)cc3C2c2ccccc2)cc1 (stereo unspecified) | 873 s
57 | Cc1ccc(C)c(Cn2nc3c(S(=O)(=O)N4CCN(c5ccc(F)cc5)CC4)cccn3c2=O)c1 | 1050 s
58 | CCOC(=O)Cn1c(C2CC(=O)N(c3ccccc3)C2)nc2ccccc21 (stereo unspecified) | 770 s
59 | CCCNC(=O)CCNc1c(-c2ccc(C)cc2)nc2cnccn12 | 654 s
60 | Cc1cc(-c2nnc(NC(=O)C3CCCN(S(=O)(=O)c4cccs4)C3)o2)nn1C (stereo unspecified) | 696 s
61 | O=C(c1ccc(F)c(Cl)c1)N1CCN(C(=O)c2nnn3c2COC(c2ccccc2)C3)CC1 (stereo unspecified) | 913 s
62 | CCCn1cc(CNC(=O)C2CCCN(c3nnc4ccc(C(F)(F)F)cn34)C2)c(C)n1 (stereo unspecified) | 709 s
63 | O=C(Cc1ccccc1)NCc1nc(-c2cccc(-c3ccn[nH]3)c2)no1 | 898 s
64 | Cc1oc(C2CCN(S(=O)(=O)c3ccc(C#N)cc3)CC2)nc1C(=O)N1CCOCC1 | 760 s
65 | O=C(NC1CCCC1)N1CCC(Oc2ccc(-c3noc(C4CC4)n3)cc2)C1 (stereo unspecified) | 904 s
66 | COCCNC(=O)c1ccc(-c2ccc(N3CCCCC3)nc2)cc1 | 603 s
67 | Cc1cc2[nH]c(C(=O)Nc3cc(F)c(F)c(F)c3)c(CN(C)C)c2s1 | 743 s
68 | COc1ccc(NC(=O)N2CCC(c3nc(C(=O)N(C)C)c(C)o3)CC2)cc1OC | 635 s
69 | Cc1cc(OCC(=O)N2CCCCC2CCN2CCOCC2)ccc1Cl (stereo unspecified) | 689 s
70 | CC1CCN(C(=O)c2ccc(Cn3cncn3)cc2)CC1 | 672 s
71 | COc1ccc2[nH]c(=O)c(CCC(=O)N(C)Cc3cn(C)nc3C)cc2c1 | 618 s
72 | CCN(CC)C(=O)N1CCC2(CC1)CC(N1CCN(c3ccccc3)CC1)CCO2 (stereo unspecified) | 582 s
73 | COc1ccc(NC(=O)Nc2nccn(-c3ccc(C)c(C)c3)c2=O)cc1OC | 913 s
74 | Cc1ccccc1N1C(=O)CN(S(=O)(=O)c2ccccc2)CC1(C)C(=O)NC1CCCC1 (stereo unspecified) | 920 s
75 | c1ccc(-n2nnnc2SCCNCc2ccc3c(c2)OCCO3)cc1 | 634 s
76 | O=c1n(Cc2ccc(Cl)cc2)nc2c(S(=O)(=O)N3CCCCCC3)cccn12 | 991 s
